Source: ChEMBL document CHEMBL5724914, “Linking interpersonal differences in gut microbiota composition and drug biotransformation activity” (2024)

Key:
[1] = The drug is tested on Z-022 corresponding to mouse gut metagenome with ENA study accession number: PRJEB37062 and ENA sample accession number: ERS12561821 for biotransformation under anaerobic condition. The drug concentrations were measured over 9 timepoints collected between 0 and 24 hours of incubation by liquid-chromatography-coupled mass spectrometry (LC–MS); conditions: 2 µM
[2] = human gut metagenome, 24 h, 2 µM
[3] = human gut metagenome, 24 h, 2 µM; remark: listed apart in the source
[4] = The drug is tested on WLS-077 corresponding to human gut metagenome with ENA study accession number: PRJEB37062 and ENA sample accession number: ERS12561750 for biotransformation under anaerobic condition. The drug concentrations were measured over 9 timepoints collected between 0 and 24 hours of incubation by liquid-chromatography-coupled mass spectrometry (LC–MS); conditions: 2 µM
[5] = human gut metagenome, 24 h, 2 µM; remark: listed apart in the source
[6] = human gut metagenome, 24 h, 2 µM; remark: listed apart in the source
[7] = The drug is tested on Z-011 corresponding to mouse gut metagenome with ENA study accession number: PRJEB37062 and ENA sample accession number: ERS12561811 for biotransformation under anaerobic condition. The drug concentrations were measured over 9 timepoints collected between 0 and 24 hours of incubation by liquid-chromatography-coupled mass spectrometry (LC–MS); conditions: 2 µM
[8] = The drug is tested on Z-012 corresponding to metagenome with ENA study accession number: PRJEB37062 and ENA sample accession number: ERS12561812 for biotransformation under anaerobic condition. The drug concentrations were measured over 9 timepoints collected between 0 and 24 hours of incubation by liquid-chromatography-coupled mass spectrometry (LC–MS); conditions: 2 µM
[9] = The drug is tested on WLS-310 corresponding to human gut metagenome with ENA study accession number: PRJEB37062 and ENA sample accession number: ERS12561785 for biotransformation under anaerobic condition. The drug concentrations were measured over 9 timepoints collected between 0 and 24 hours of incubation by liquid-chromatography-coupled mass spectrometry (LC–MS); conditions: 2 µM
[10] = The drug is tested on Z-025 corresponding to rabbit gut metagenome with ENA study accession number: PRJEB37062 and ENA sample accession number: ERS12561824 for biotransformation under anaerobic condition. The drug concentrations were measured over 9 timepoints collected between 0 and 24 hours of incubation by liquid-chromatography-coupled mass spectrometry (LC–MS); conditions: 2 µM
[11] = The drug is tested on Z-001 corresponding to mouse gut metagenome with ENA study accession number: PRJEB37062 and ENA sample accession number: ERS12561801 for biotransformation under anaerobic condition. The drug concentrations were measured over 9 timepoints collected between 0 and 24 hours of incubation by liquid-chromatography-coupled mass spectrometry (LC–MS); conditions: 2 µM
[12] = human gut metagenome, 24 h, 2 µM; remark: listed apart in the source
[13] = The drug is tested on Z-029 corresponding to rat gut metagenome with ENA study accession number: PRJEB37062 and ENA sample accession number: ERS12561828 for biotransformation under anaerobic condition. The drug concentrations were measured over 9 timepoints collected between 0 and 24 hours of incubation by liquid-chromatography-coupled mass spectrometry (LC–MS); conditions: 2 µM
[14] = human gut metagenome, 24 h, 2 µM; remark: listed apart in the source
[15] = human gut metagenome, 24 h, 2 µM; remark: listed apart in the source
[16] = The drug is tested on Z-018 corresponding to pig gut metagenome with ENA study accession number: PRJEB37062 and ENA sample accession number: ERS12561817 for biotransformation under anaerobic condition. The drug concentrations were measured over 9 timepoints collected between 0 and 24 hours of incubation by liquid-chromatography-coupled mass spectrometry (LC–MS); conditions: 2 µM
[17] = The drug is tested on Z-013 corresponding to rabbit gut metagenome with ENA study accession number: PRJEB37062 and ENA sample accession number: ERS12561813 for biotransformation under anaerobic condition. The drug concentrations were measured over 9 timepoints collected between 0 and 24 hours of incubation by liquid-chromatography-coupled mass spectrometry (LC–MS); conditions: 2 µM
[18] = human gut metagenome, 24 h, 2 µM; remark: listed apart in the source
[19] = human gut metagenome, 24 h, 2 µM; remark: listed apart in the source
[20] = human gut metagenome, 24 h, 2 µM; remark: listed apart in the source
Further: call rule not given here.

Structure (SMILES): CC(C)(C)NC(=O)[C@H]1CC[C@H]2[C@@H]3CC[C@H]4NC(=O)C=C[C@]4(C)[C@H]3CC[C@]12C [FINASTERIDE]
- Bacterial Biotransformation [1]: Compound metabolized
- Bacterial Biotransformation [2]: Compound metabolized
- Bacterial Biotransformation [3]: Compound metabolized
- Bacterial Biotransformation [4]: Compound metabolized
- Bacterial Biotransformation [5]: Compound NOT metabolized
- Bacterial Biotransformation [6]: Compound metabolized
- Bacterial Biotransformation [7]: Compound metabolized
- Bacterial Biotransformation [8]: Compound metabolized
- Bacterial Biotransformation [9]: Compound metabolized
- Bacterial Biotransformation [10]: Compound NOT metabolized
- Bacterial Biotransformation [11]: Compound NOT metabolized
- Bacterial Biotransformation [12]: Compound NOT metabolized
- Bacterial Biotransformation [13]: Compound NOT metabolized
- Bacterial Biotransformation [14]: Compound metabolized
- Bacterial Biotransformation [15]: Compound metabolized
- Bacterial Biotransformation [16]: Compound metabolized
- Bacterial Biotransformation [17]: Compound metabolized
- Bacterial Biotransformation [18]: Compound metabolized
- Bacterial Biotransformation [19]: Compound metabolized
- Bacterial Biotransformation [20]: Compound metabolized

Structure (SMILES): COc1ccc2c(c1)c(CC(=O)O)c(C)n2C(=O)c1ccc(Cl)cc1 [INDOMETHACIN]
- Bacterial Biotransformation [1]: Compound NOT metabolized
- Bacterial Biotransformation [2]: Compound NOT metabolized
- Bacterial Biotransformation [3]: Compound metabolized
- Bacterial Biotransformation [4]: Compound metabolized
- Bacterial Biotransformation [5]: Compound metabolized
- Bacterial Biotransformation [6]: Compound metabolized
- Bacterial Biotransformation [7]: Compound NOT metabolized
- Bacterial Biotransformation [8]: Compound NOT metabolized
- Bacterial Biotransformation [9]: Compound metabolized
- Bacterial Biotransformation [10]: Compound NOT metabolized
- Bacterial Biotransformation [11]: Compound NOT metabolized
- Bacterial Biotransformation [12]: Compound NOT metabolized
- Bacterial Biotransformation [13]: Compound NOT metabolized
- Bacterial Biotransformation [14]: Compound metabolized
- Bacterial Biotransformation [15]: Compound metabolized
- Bacterial Biotransformation [16]: Compound metabolized
- Bacterial Biotransformation [17]: Compound NOT metabolized
- Bacterial Biotransformation [18]: Compound metabolized
- Bacterial Biotransformation [19]: Compound metabolized
- Bacterial Biotransformation [20]: Compound metabolized

Structure (SMILES): CN(C)C(=O)Oc1cccc([N+](C)(C)C)c1.[Br-] [NEOSTIGMINE BROMIDE]
- Bacterial Biotransformation [1]: Compound NOT metabolized
- Bacterial Biotransformation [2]: Compound NOT metabolized
- Bacterial Biotransformation [3]: Compound NOT metabolized
- Bacterial Biotransformation [4]: Compound NOT metabolized
- Bacterial Biotransformation [5]: Compound NOT metabolized
- Bacterial Biotransformation [6]: Compound NOT metabolized
- Bacterial Biotransformation [7]: Compound NOT metabolized
- Bacterial Biotransformation [8]: Compound NOT metabolized
- Bacterial Biotransformation [9]: Compound NOT metabolized
- Bacterial Biotransformation [10]: Compound NOT metabolized
- Bacterial Biotransformation [11]: Compound metabolized
- Bacterial Biotransformation [12]: Compound NOT metabolized
- Bacterial Biotransformation [13]: Compound metabolized
- Bacterial Biotransformation [14]: Compound NOT metabolized
- Bacterial Biotransformation [15]: Compound NOT metabolized
- Bacterial Biotransformation [16]: Compound NOT metabolized
- Bacterial Biotransformation [17]: Compound NOT metabolized
- Bacterial Biotransformation [18]: Compound NOT metabolized
- Bacterial Biotransformation [19]: Compound NOT metabolized
- Bacterial Biotransformation [20]: Compound NOT metabolized

Structure (SMILES): CN[C@H]1CC[C@@H](c2ccc(Cl)c(Cl)c2)c2ccccc21 [SERTRALINE]
- Bacterial Biotransformation [1]: Compound NOT metabolized
- Bacterial Biotransformation [2]: Compound NOT metabolized
- Bacterial Biotransformation [3]: Compound NOT metabolized
- Bacterial Biotransformation [4]: Compound metabolized
- Bacterial Biotransformation [5]: Compound NOT metabolized
- Bacterial Biotransformation [6]: Compound metabolized
- Bacterial Biotransformation [7]: Compound metabolized
- Bacterial Biotransformation [8]: Compound metabolized
- Bacterial Biotransformation [9]: Compound metabolized
- Bacterial Biotransformation [10]: Compound metabolized
- Bacterial Biotransformation [11]: Compound NOT metabolized
- Bacterial Biotransformation [12]: Compound NOT metabolized
- Bacterial Biotransformation [13]: Compound NOT metabolized
- Bacterial Biotransformation [14]: Compound NOT metabolized
- Bacterial Biotransformation [15]: Compound NOT metabolized
- Bacterial Biotransformation [16]: Compound metabolized
- Bacterial Biotransformation [17]: Compound NOT metabolized
- Bacterial Biotransformation [18]: Compound NOT metabolized
- Bacterial Biotransformation [19]: Compound NOT metabolized
- Bacterial Biotransformation [20]: Compound NOT metabolized

Structure (SMILES): CCc1cccc2c3c([nH]c12)C(CC)(CC(=O)O)OCC3 (stereo not given) [ETODOLAC]
- Bacterial Biotransformation [1]: Compound NOT metabolized
- Bacterial Biotransformation [2]: Compound NOT metabolized
- Bacterial Biotransformation [3]: Compound metabolized
- Bacterial Biotransformation [4]: Compound NOT metabolized
- Bacterial Biotransformation [5]: Compound NOT metabolized
- Bacterial Biotransformation [6]: Compound metabolized
- Bacterial Biotransformation [7]: Compound NOT metabolized
- Bacterial Biotransformation [8]: Compound NOT metabolized
- Bacterial Biotransformation [9]: Compound metabolized
- Bacterial Biotransformation [10]: Compound NOT metabolized
- Bacterial Biotransformation [11]: Compound NOT metabolized
- Bacterial Biotransformation [12]: Compound NOT metabolized
- Bacterial Biotransformation [13]: Compound NOT metabolized
- Bacterial Biotransformation [14]: Compound metabolized
- Bacterial Biotransformation [15]: Compound NOT metabolized
- Bacterial Biotransformation [16]: Compound metabolized
- Bacterial Biotransformation [17]: Compound NOT metabolized
- Bacterial Biotransformation [18]: Compound metabolized
- Bacterial Biotransformation [19]: Compound metabolized
- Bacterial Biotransformation [20]: Compound metabolized

Structure (SMILES): COc1ccc([C@@H]2Sc3ccccc3N(CCN(C)C)C(=O)[C@@H]2OC(C)=O)cc1 [DILTIAZEM]
- Bacterial Biotransformation [1]: Compound metabolized
- Bacterial Biotransformation [2]: Compound metabolized
- Bacterial Biotransformation [3]: Compound metabolized
- Bacterial Biotransformation [4]: Compound NOT metabolized
- Bacterial Biotransformation [5]: Compound NOT metabolized
- Bacterial Biotransformation [6]: Compound NOT metabolized
- Bacterial Biotransformation [7]: Compound NOT metabolized
- Bacterial Biotransformation [8]: Compound metabolized
- Bacterial Biotransformation [9]: Compound metabolized
- Bacterial Biotransformation [10]: Compound NOT metabolized
- Bacterial Biotransformation [11]: Compound metabolized
- Bacterial Biotransformation [12]: Compound metabolized
- Bacterial Biotransformation [13]: Compound NOT metabolized
- Bacterial Biotransformation [14]: Compound metabolized
- Bacterial Biotransformation [15]: Compound metabolized
- Bacterial Biotransformation [16]: Compound metabolized
- Bacterial Biotransformation [17]: Compound NOT metabolized
- Bacterial Biotransformation [18]: Compound metabolized
- Bacterial Biotransformation [19]: Compound NOT metabolized
- Bacterial Biotransformation [20]: Compound metabolized
